Results reported in patent US20070026080A1, “Manufacturing process for tigecycline” (Wyeth, priority 2005, published 2007).

Assay: Strength and degradation profile of tigecycline 20 mg/mL bulk solutions by reversed phase HPLC (effect of temperature, time, pH, dissolved oxygen; Runs A to O)
Format: physicochemical
Settings: pH 7.7, Oxygen = 0.1 mg/L
Description: The contents of the sample vials are dissolved in diluent. The sample solution is diluted, if necessary, and chromatographed on a reversed phase column using gradient elution. Impurities are determined by comparing the impurity peak areas in the sample preparation chromatogram to the average area of tigecycline peaks in the standard preparation chromatograms obtained concomitantly.
Chromatographic Column—Length about 15 cm, inside diameter about 4.6 mm, packed with Inertsil ODS2, 5 μm size particles or equivalent.
Detector—Ultraviolet spectrophotometric detector capable of operating at 248 nm with a sensitivity of about 0.5 absorbance units full scale.
The results of additional studies to investigate the effect of processing parameters such as temperature, time, and dissolved oxygen content on the purity profile of tigecycline solutions using the following materials, methods and procedures are presented in Tables A to O.
The experiments were run in plastic glove bags under normal laboratory light conditions. Plastic glove boxes will be used to control the headspace of the beakers. The batch size was 200 mL. • 1. Prepare the glove bag with a mixture of nitrogen and air to achieve an oxygen level in the solution as per the design. • 2. Place the jacketed beaker on the magnetic stirrer. Connect it to the cooler. Set the cooler to the desired set point. • 3. Add 200 mL of SWFI in to the beaker. Allow equilibrating. Measure the temperature and oxygen content. When it reaches the desired condition, add accurately weighed API and mix until dissolved. If necessary use spatula to aid dissolution. For pH adjustments, use 4 mL of either 0.1N NaOH or 0.1N HCl and 196 mL of WFI for manufacture. • 4. After complete dissolution, Transfer about 5.5 mL of Solution in vials and stopper them. These vials will be stoppered at the appropriate headspace conditions. Place the vials in appropriate temperature conditions. • 5. Sample the vials at 1, 4, 8, 10, 12 and 24 hours. Send the samples for analysis. Freeze the 10, 12 and 24 samples at −20° C. for analysis the following day. • 6. Measure pH and record color of the solution at each time point. Results
The 1-hour samples were taken directly from the beakers. Samples for later time points were collected in stoppered vials processed in the atmosphere of the bag in order to simulate the headspace conditions then placed in water baths or refrigerator to maintain there respective temperature conditions. This was done to maintain safety in the lab. Disposable plastic glove bags require constant flow of a mixture of nitrogen and air to maintain headspace oxygen level that will result in the desired dissolved oxygen (DO) content in the sample. The pH of samples was measured at each sample points.
Strength and degradation profile was analyzed by HPLC as described above. […] Degradation was slightly higher at higher temperature condition.

## CN(C)c1cc(NC(=O)CNC(C)(C)C)c(O)c2c1C[C@H]1C[C@H]3[C@H](N(C)C)C(O)=C(C(N)=O)C(=O)[C@@]3(O)C(O)=C1C2=O [Tigecycline]
Run #L, 2° C., 12 Hrs
  RRT 1.45: 0.07%
  RRT 1.58: BRL (BRL means below reporting limit (meaning less than 0.05% of tigecycline peak))
  RRT 1.64 Mino: 0.14%
  RRT 1.67 MW = 556: BRL (BRL means below reporting limit (meaning less than 0.05% of tigecycline peak))
  RRT 1.85 MW = 597: 0.08%
  Strength: 19.448 mg/mL
  Total: 0.58%
Run #L, 2° C., 24 Hrs
  RRT 0.12 MW = 633: BRL (BRL means below reporting limit (meaning less than 0.05% of tigecycline peak))
  RRT 0.23 MW = 572: BRL (BRL means below reporting limit (meaning less than 0.05% of tigecycline peak))
  RRT 0.50 MW = 601: BRL (BRL means below reporting limit (meaning less than 0.05% of tigecycline peak))
  RRT 0.55 MW = 583: BRL (BRL means below reporting limit (meaning less than 0.05% of tigecycline peak))
  RRT 0.58: 0.09%
  RRT 0.64 9-Amino: BRL (BRL means below reporting limit (meaning less than 0.05% of tigecycline peak))
  RRT 0.74 Epimer: 0.21%
  RRT 0.76: BRL (BRL means below reporting limit (meaning less than 0.05% of tigecycline peak))
  RRT 0.78 MW = 557: BRL (BRL means below reporting limit (meaning less than 0.05% of tigecycline peak))
  RRT 1.12: BRL (BRL means below reporting limit (meaning less than 0.05% of tigecycline peak))
  RRT 1.45: 0.08%
  RRT 1.58: BRL (BRL means below reporting limit (meaning less than 0.05% of tigecycline peak))
  RRT 1.64 Mino: 0.13%
  RRT 1.67 MW = 556: BRL (BRL means below reporting limit (meaning less than 0.05% of tigecycline peak))
  RRT 1.85 MW = 597: 0.09%
  Strength: 19.156 mg/mL
  Total: 0.61%
Run #M, 8° C., 1 Hrs
  RRT 0.12 MW = 633: BRL (BRL means below reporting limit (meaning less than 0.05% of tigecycline peak))
  RRT 0.23 MW = 572: BRL (BRL means below reporting limit (meaning less than 0.05% of tigecycline peak))
  RRT 0.50 MW = 601: BRL (BRL means below reporting limit (meaning less than 0.05% of tigecycline peak))
  RRT 0.55 MW = 583: BRL (BRL means below reporting limit (meaning less than 0.05% of tigecycline peak))
  RRT 0.58: 0.08%
  RRT 0.64 9-Amino: BRL (BRL means below reporting limit (meaning less than 0.05% of tigecycline peak))
  RRT 0.74 Epimer: 0.20%
  RRT 0.76: 0.06%
  RRT 0.78 MW = 557: BRL (BRL means below reporting limit (meaning less than 0.05% of tigecycline peak))
  RRT 1.12: BRL (BRL means below reporting limit (meaning less than 0.05% of tigecycline peak))
  RRT 1.45: BRL (BRL means below reporting limit (meaning less than 0.05% of tigecycline peak))
  RRT 1.58: BRL (BRL means below reporting limit (meaning less than 0.05% of tigecycline peak))
  RRT 1.64 Mino: 0.14%
  RRT 1.67 MW = 556: BRL (BRL means below reporting limit (meaning less than 0.05% of tigecycline peak))
  RRT 1.85 MW = 597: BRL (BRL means below reporting limit (meaning less than 0.05% of tigecycline peak))
  Strength: 19.270 mg/mL
  Total: 0.47%
Run #M, 8° C., 4 Hrs
  RRT 0.12 MW = 633: BRL (BRL means below reporting limit (meaning less than 0.05% of tigecycline peak))
  RRT 0.23 MW = 572: BRL (BRL means below reporting limit (meaning less than 0.05% of tigecycline peak))
  RRT 0.50 MW = 601: BRL (BRL means below reporting limit (meaning less than 0.05% of tigecycline peak))
  RRT 0.55 MW = 583: BRL (BRL means below reporting limit (meaning less than 0.05% of tigecycline peak))
  RRT 0.58: 0.07%
  RRT 0.64 9-Amino: BRL (BRL means below reporting limit (meaning less than 0.05% of tigecycline peak))
  RRT 0.74 Epimer: 0.23%
  RRT 0.76: 0.06%
  RRT 0.78 MW = 557: BRL (BRL means below reporting limit (meaning less than 0.05% of tigecycline peak))
  RRT 1.12: BRL (BRL means below reporting limit (meaning less than 0.05% of tigecycline peak))
  RRT 1.45: 0.06%
  RRT 1.58: BRL (BRL means below reporting limit (meaning less than 0.05% of tigecycline peak))
  RRT 1.64 Mino: 0.08%
  RRT 1.67 MW = 556: BRL (BRL means below reporting limit (meaning less than 0.05% of tigecycline peak))
  RRT 1.85 MW = 597: 0.06%
  Strength: 19.340 mg/mL
  Total: 0.57%
Run #M, 8° C., 8 Hrs
  RRT 0.12 MW = 633: BRL (BRL means below reporting limit (meaning less than 0.05% of tigecycline peak))
  RRT 0.23 MW = 572: BRL (BRL means below reporting limit (meaning less than 0.05% of tigecycline peak))
  RRT 0.50 MW = 601: BRL (BRL means below reporting limit (meaning less than 0.05% of tigecycline peak))
  RRT 0.55 MW = 583: BRL (BRL means below reporting limit (meaning less than 0.05% of tigecycline peak))
  RRT 0.58: 0.08%
  RRT 0.64 9-Amino: BRL (BRL means below reporting limit (meaning less than 0.05% of tigecycline peak))
  RRT 0.74 Epimer: 0.24%
  RRT 0.76: 0.06%
  RRT 0.78 MW = 557: BRL (BRL means below reporting limit (meaning less than 0.05% of tigecycline peak))
  RRT 1.12: BRL (BRL means below reporting limit (meaning less than 0.05% of tigecycline peak))
  RRT 1.45: 0.07%
  RRT 1.58: BRL (BRL means below reporting limit (meaning less than 0.05% of tigecycline peak))
  RRT 1.64 Mino: 0.11%
  RRT 1.67 MW = 556: BRL (BRL means below reporting limit (meaning less than 0.05% of tigecycline peak))
  RRT 1.85 MW = 597: 0.06%
  Strength: 19.238 mg/mL
  Total: 0.62%
Run #M, 8° C., 10 Hrs
  RRT 0.12 MW = 633: BRL (BRL means below reporting limit (meaning less than 0.05% of tigecycline peak))
  RRT 0.23 MW = 572: BRL (BRL means below reporting limit (meaning less than 0.05% of tigecycline peak))
  RRT 0.50 MW = 601: BRL (BRL means below reporting limit (meaning less than 0.05% of tigecycline peak))
  RRT 0.55 MW = 583: 0.09%
  RRT 0.58: 0.07%
  RRT 0.64 9-Amino: BRL (BRL means below reporting limit (meaning less than 0.05% of tigecycline peak))
  RRT 0.74 Epimer: 0.25%
  RRT 0.76: 0.05%
  RRT 0.78 MW = 557: BRL (BRL means below reporting limit (meaning less than 0.05% of tigecycline peak))
